In patent publication US20020010186A1, “Dihydropyrimidines and uses thereof” (Synaptic Pharmaceutical Corporation, priority 1996, published 2002):
Structures can show the parent of a compound that is named as a salt. Blank lines part the entries; values can stand above or below the compound they belong to.

Key:
human α1D receptor = target: T1, human α1D receptor (Homo sapiens, UniProt P25100); assay: Radioligand binding assay ([3H]prazosin) at cloned human α1D adrenergic receptor; conditions: membranes of LM(tk-) cells, [3H]prazosin 0.5 nM; for Ki: read-out: hα1d pKi (converted)
T1 sequence (P25100 1-572): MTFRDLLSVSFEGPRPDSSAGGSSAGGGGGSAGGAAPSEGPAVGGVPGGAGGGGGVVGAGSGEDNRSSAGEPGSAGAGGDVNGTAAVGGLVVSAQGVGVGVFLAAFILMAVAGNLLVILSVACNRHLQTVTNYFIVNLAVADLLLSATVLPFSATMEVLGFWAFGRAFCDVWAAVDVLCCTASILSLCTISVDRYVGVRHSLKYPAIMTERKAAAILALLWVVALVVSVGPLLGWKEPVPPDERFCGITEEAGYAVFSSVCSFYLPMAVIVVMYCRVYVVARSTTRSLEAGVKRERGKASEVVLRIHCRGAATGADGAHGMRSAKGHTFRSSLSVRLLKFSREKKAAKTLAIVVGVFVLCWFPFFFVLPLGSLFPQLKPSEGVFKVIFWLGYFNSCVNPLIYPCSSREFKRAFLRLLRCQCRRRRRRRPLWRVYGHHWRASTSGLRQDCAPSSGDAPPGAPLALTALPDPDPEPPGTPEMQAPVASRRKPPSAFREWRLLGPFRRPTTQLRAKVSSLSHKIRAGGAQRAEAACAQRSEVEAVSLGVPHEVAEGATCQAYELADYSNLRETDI
Description: (§1) These cell lines were prepared by transfecting the cloned cDNA or cloned genomic DNA or constructs containing both genomic DNA and cDNA encoding the human u-adrenergic receptors as follows:
The cells were grown, in a controlled environment ([…]., 5% CO2), as monolayers in Dulbecco's modified Eagle's Medium (GIBCO, Grand Island, N.Y.) containing 25 mM glucose and supplemented with 10% bovine calf serum, 100 units/ml penicillin g, and 100 μg/ml streptomycin sulfate.
(§2) The construct involved ligating three partial overlapping fragments: a 5′ 0.6 kb HincII genomic clone, a central 1.8 EcoRI hippocampal cDNA clone, and a 3′ 0.6Kb PstI genomic clone. The hippocampal cDNA fragment overlaps with the 5′ and 3′ genomic clones so that the HincII and PstI sites at the 5′ and 3′ ends of the cDNA clone, respectively, were utilized for ligation. This full-length clone was cloned into the KpnI site of the expression vector, using the 5′ and 3′ KpnI sites of the fragment, derived from vector (i.e., pBluescript) and 3′-untranslated sequences, respectively. Stable cell lines were selected as described above. […] Radioligand Binding Assays: Transfected cells from culture flasks were scraped into 5 ml of 5 mM Tris-HCl, 5 mM EDTA, pH 7.5, and lysed by sonication. The cell lysates were centrifuged at 1000 rpm for 5 min at 4° C., and the supernatant was centrifuged at 30,000×g for 20 min at 4° C. The pellet was suspended in 50 mM Tris-HCl, 1 mM MgCl2, and 0.1% ascorbic acid at pH 7.5. Binding of the al antagonist [^3H]prazosin (0.5 nM, specific activity 76.2 Ci/mmol) to membrane preparations of LM(tk-) cells was done in a final volume of 0.25 ml and incubated at 37° C. for 20 min. Nonspecific binding was determined in the presence of 10 μM phentolamine. The reaction was stopped by filtration through GF/B filters using a cell harvester.

human α1B receptor = target: T2, human α1B receptor (Homo sapiens, UniProt P35368); assay: Radioligand binding assay ([3H]prazosin) at cloned human α1B adrenergic receptor; conditions: membranes of LM(tk-) cells, [3H]prazosin 0.5 nM; for Ki: read-out: hα1b pKi (converted)
T2 sequence (P35368 1-520): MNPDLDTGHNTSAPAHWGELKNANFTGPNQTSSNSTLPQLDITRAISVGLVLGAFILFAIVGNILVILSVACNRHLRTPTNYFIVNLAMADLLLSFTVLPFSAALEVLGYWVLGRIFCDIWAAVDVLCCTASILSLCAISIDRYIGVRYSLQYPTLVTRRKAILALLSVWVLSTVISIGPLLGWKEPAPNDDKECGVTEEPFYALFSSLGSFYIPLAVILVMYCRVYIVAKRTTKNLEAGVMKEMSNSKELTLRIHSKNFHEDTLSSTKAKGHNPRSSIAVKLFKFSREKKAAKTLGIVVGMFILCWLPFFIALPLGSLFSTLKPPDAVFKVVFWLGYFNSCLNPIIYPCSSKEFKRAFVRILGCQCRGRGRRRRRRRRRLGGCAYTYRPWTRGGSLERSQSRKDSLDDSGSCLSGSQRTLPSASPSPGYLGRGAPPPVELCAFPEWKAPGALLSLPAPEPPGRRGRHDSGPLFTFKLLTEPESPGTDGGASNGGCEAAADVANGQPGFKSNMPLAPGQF
Description: as §1
The construct involved ligating the full-length containing EcoRI brainstem cDNA fragment from λ ZapII into the expression vector. Stable cell lines were selected as described above.
as §2

human α1A receptor = target: T3, human α1A receptor (Homo sapiens, UniProt P35348); assay: Radioligand binding assay ([3H]prazosin) at cloned human α1A adrenergic receptor; conditions: membranes of LM(tk-) cells, [3H]prazosin 0.5 nM; for Ki: read-out: hα1a pKi (converted)
T3 sequence (P35348 1-466): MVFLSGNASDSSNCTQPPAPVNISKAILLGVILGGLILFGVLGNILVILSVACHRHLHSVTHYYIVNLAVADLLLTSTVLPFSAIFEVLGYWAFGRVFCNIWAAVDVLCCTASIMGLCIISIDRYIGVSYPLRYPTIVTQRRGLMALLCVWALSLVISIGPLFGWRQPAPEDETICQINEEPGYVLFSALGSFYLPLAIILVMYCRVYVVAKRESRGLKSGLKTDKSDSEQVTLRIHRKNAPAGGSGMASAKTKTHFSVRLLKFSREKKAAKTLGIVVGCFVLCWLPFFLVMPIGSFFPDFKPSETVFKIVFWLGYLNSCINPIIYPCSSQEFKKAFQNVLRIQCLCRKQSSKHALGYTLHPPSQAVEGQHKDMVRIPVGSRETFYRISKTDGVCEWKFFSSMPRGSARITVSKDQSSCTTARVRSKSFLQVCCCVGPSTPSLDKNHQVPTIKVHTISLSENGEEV
Description: as §1, §2

melting point: 55 to 57 °C
SMILES: COC(=O)N1C(C)=NC(C)=C(C(=O)NCCCN2CCC(C(=O)OC)(c3ccccc3)CC2)C1c1ccc(F)c(F)c1 (centres unmarked)

melting point: 53 to 57 °C
SMILES: COCN1C(C)=NC(C)=C(C(=O)NCCCN2CCC(C(=O)OC)(c3ccccc3)CC2)C1c1ccc(F)c(F)c1 (centres unmarked)

melting point: 157 to 159 °C
SMILES: COCC1=C(C(=O)OC)C(c2ccc(F)c(F)c2)N(C(=O)NCCCN2CCC(c3ccccc3)(c3cccs3)CC2)C(=O)N1 (centres unmarked)

melting point: 153 to 155 °C
SMILES: COCC1=C(C(=O)OC)C(c2ccc(F)c(F)c2)N(C(=O)NCCCN2CCC(c3ccccc3)(c3ccco3)CC2)C(=O)N1 (centres unmarked)

melting point: 137 to 140 °C
SMILES: COCC1=NC(C)=C(C(=O)OC)C(c2ccc(F)c(F)c2)N1CCCCCN1CCC(c2ccc(C)cc2)(c2ccccc2C)CC1 (centres unmarked) (as salt: HCl)

SMILES: COC(=O)C1=C(C)N=C(C)N(CCCCCN2CCC(C(=O)OC)(c3ccccc3)CC2)C1c1ccc(F)c(F)c1 (centres unmarked) (as salt: HCl) [Example 17, 6-(3,4-Difluorophenyl)-1,6-dihydro-5-methoxycarbonyl-1-(5-(4-methoxycarbonyl-4-phenylpiperidin-1-yl)-pentyl)-2,4-dimethylpyrimidine]
melting point: 170 to 176 °C

melting point: 95 to 97 °C
SMILES: COC(=O)C1=C(C)N=C(C)N(CCCCCNCCCc2ccccc2)C1c1ccc(F)c(F)c1 (centres unmarked) (as salt: HCl) [Example 55, 6-(3,4-Difluorophenyl)-1,6-dihydro-5-methoxycarbonyl-2,4-dimethyl-1-(5-(3-phenylpropylamino)pentyl)-pyrimidine]

melting point: 170 to 174 °C
SMILES: COC(=O)C1=C(C)NC(=O)N(C(=O)NCCCN2CCC(c3ccccn3)CC2)C1c1ccc(F)c(F)c1 (centres unmarked) (as salt: hydrochloride) [Example 15, 6-(3,4-Difluorophenyl)-5-methoxycarbonyl-4-methyl-2-oxo-1-{N-[4-(2-pyridyl)-piperidine-1-yl]propyl}carboxamido-1,2,3,6-tetrahydropyrimidine Dihydrochloride]

melting point: 163 to 165 °C
SMILES: COC(=O)C1=C(C)N=C(C)N(CCCC(O)CN2CCC(c3ccccn3)CC2)C1c1ccc(F)c(F)c1 (single isomer, unassigned; (+)) (as salt: HCl) [Example 56, (+)-6-(3,4-Difluorophenyl)-1,6-dihydro-1-(4-hydroxy-5-(4-(2-pyridyl)piperidin-1-yl)pentyl)-5-methoxycarbonyl-2,4-dimethylpyrimidine]

SMILES: CCC1=C(C(N)=O)C(c2ccc(F)c(F)c2)N(C(=O)NCCCN2CCC(C(=O)OC)(c3ccccc3)CC2)C(=O)N1 (single isomer, unassigned; (+)) [Example 14, (+)-5-Carboxamido-6-(3,4-difluorophenyl)-4-ethyl-1-{N-[3-(4-methoxycarbonyl-4-phenylpiperidin-1-yl)propyl]}carboxamido-2-oxo-1,2,3,6-tetrhydropyrimidine]
hα1d pKi (human α1D receptor): 6.46 | hα1b pKi (human α1B receptor): 6.59 | hα1a pKi (human α1A receptor): 9.68

Ki (human α1D receptor): 977 nM | Ki (human α1B receptor): 468 nM | Ki (human α1A receptor): 0.389 nM
SMILES: COC(=O)C1=C(C)NC(=O)N(C(=O)NCCCN2CCC(c3ccccn3)CC2)C1c1ccc(F)c(F)c1 (centres unmarked) [Example 15, 6-(3,4-Difluorophenyl)-5-methoxycarbonyl-4-methyl-2-oxo-1-{N-[4-(2-pyridyl)-piperidine-1-yl]propyl}carboxamido-1,2,3,6-tetrahydropyrimidine Dihydrochloride]

Ki (human α1D receptor): 575 nM | Ki (human α1B receptor): 427 nM | Ki (human α1A receptor): 0.288 nM
SMILES: COC(=O)C1=C(C)NC(=O)N(C(=O)NCCCN2CCC(c3ccccn3)CC2)C1c1ccc2nonc2c1 (centres unmarked) [Example 16, 6-(3,4-Benzofurazan-5-yl)-5-methoxycarbonyl-4-methyl-2-oxo-1-{N-[4-(2-pyridyl)-piperidin-1-yl]propyl}carboxamido-1,2,3,6-tetrahydropyrimidine Dihydrochloride]

SMILES: COC(=O)C1=C(C)N=C(C)N(CCCCCN2CCC(C(=O)OC)(c3ccccc3)CC2)C1c1ccc(F)c(F)c1 (centres unmarked) [Example 17, 6-(3,4-Difluorophenyl)-1,6-dihydro-5-methoxycarbonyl-1-(5-(4-methoxycarbonyl-4-phenylpiperidin-1-yl)-pentyl)-2,4-dimethylpyrimidine]
hα1d pKi (human α1D receptor): 6.17 | hα1b pKi (human α1B receptor): 6.32
